From patent US10544113B2 (priority 2016, dated 2020)
Where two headings read alike, the source gives them in different places.

Biological target: mu-opioid receptor (MOR) (Homo sapiens (Human), UniProt P35372)
Experiment: cell-based
Details: combined with a MOR antagonist; for AUC: AUC of [Ca2+]i fluorescence, CHO-K1/MOR/Gα15 cells
Experimental: In an exemplary in vitro screening method for identifying antagonist-to-agonist allosteric modifiers of a MOR, cells that express a MOR are treated with a test compound and a MOR antagonist in a cellular calcium fluorescent assay and fluorescence intensity is then measured to determine whether the MOR is activated. A test compound is identified as an antagonist-to-agonist allosteric modifier of the MOR if the MOR is activated.
EC50 herein refers to the concentration of a compound that induces a response halfway between the baseline and the maximum after a specified exposure time. AUC refers to the area under the response curve, an indication of the compound's capability of activating a MOR when combined with a MOR antagonist.
Human embryonic kidney 293 (HEK-293) cells constitutively expressing MOR (HEK-MOR) and DOR (HEK-DOR) (kindly provided by Dr. Ping-Yee Law, University of Minnesota, USA) were cultured in high-glucose Dulbecco's modified Eagle's medium (DMEM, GIBCO) supplemented with 400 μg/mL G418 (Sigma), 2 mM L-glutamine and P/S/F (100 units/mL penicillin, 100 μg/mL streptomycin, 10% fetal bovine serum). Chinese hamster ovary (CHO)-K1 cells, stably expressing hMOR and Gα15 (CHO-K1/MOR/Gα15), were cultured in F12 medium (GIBCO) supplemented with 10 μg/mL Hygromycin B (Invivogen), 20 μg/mL Zeocin (Invivogen) P/S/F (100 units/mL penicillin, 100 μg/mL streptomycin, 10% fetal bovine serum). The cultures were incubated at 37° C. in a humidified 5% CO2 incubator.
One day before the assay, CORNING® black with clear flat bottom 96-well assay plates were coated with a 0.1 mg/mL Poly-L-Lysine solution. CHO-K1/MOR/Gα15 cells were suspended in the F12 medium and plated at a density of ˜8×10^4 cells/well in 200 μL medium. Cells were incubated in a humidified atmosphere of 10% CO2 at 37° C. overnight so as to reach an 80-90% confluent cell monolayer before assay. At the day of assay, 150 μL medium/well was removed from plate. To each well, 50 μL FLIPR® calcium assay reagent dissolved in 1× assay buffer (HBSS: KCl 5 mM, KH2PO4 0.3 mM, NaCl 138 mM, NaHCO3 4 mM, Na2HPO4 0.3 mM, d-glucose 5.6 mM, with additional 20 mM HEPES and 13 mM CaCl2, pH 7.4), with 2.5 mM probenecid was added and the plate was incubated at 37° C. for 1 h. Compounds and other reagents were dissolved in the assay buffer. Using a FlexStationIII (Molecular Devices Corp.), the [Ca^2+]i fluorescence increases after robotic injections of compounds or other reagents were monitored every 1.52 s interval with excitation wavelength at 485 nm and with emission wavelength at 525 nm. The [Ca^2+]i fluorescence was measured up to 90 s after agonist injection.
A CHO-K1 cell line, expressing a MOR and Gα15 (GenScript), was used to set up a sensitive high-throughput screen (HTS) system. In a FLIPR® calcium assay using CHO-K1/MOR/Gα15 cells, activation of MOR elicits an intracellular calcium release leading to an increase in the relative fluorescence units (FRU). […] The HTS was performed in the absence or presence of an opioid antagonist, naloxone (25 nM), to identify antagonist to agonist allosteric modifiers (AAM).
A CHO-K1 cell line, expressing a MOR and Gα15 (GenScript), was used to set up a sensitive assay system for detecting μ-opioid receptor activation. […] The assay was performed in the presence of an opioid antagonist, i.e., naloxone (25 nM), naltrexone (20 nM), samidorphan (10 nM), naloxonazine dihydrochloride (20 nM), β-funaltrexamine hydrochloride (20 nM), cyprodime hydrochloride (500 nM), or nalmefene (20 nM), in combination with compound 58, an antagonist to agonist allosteric modifier (AAM), to identify activation of the μ-opioid receptor.

Sequence of mu-opioid receptor (MOR) (P35372 whole entry): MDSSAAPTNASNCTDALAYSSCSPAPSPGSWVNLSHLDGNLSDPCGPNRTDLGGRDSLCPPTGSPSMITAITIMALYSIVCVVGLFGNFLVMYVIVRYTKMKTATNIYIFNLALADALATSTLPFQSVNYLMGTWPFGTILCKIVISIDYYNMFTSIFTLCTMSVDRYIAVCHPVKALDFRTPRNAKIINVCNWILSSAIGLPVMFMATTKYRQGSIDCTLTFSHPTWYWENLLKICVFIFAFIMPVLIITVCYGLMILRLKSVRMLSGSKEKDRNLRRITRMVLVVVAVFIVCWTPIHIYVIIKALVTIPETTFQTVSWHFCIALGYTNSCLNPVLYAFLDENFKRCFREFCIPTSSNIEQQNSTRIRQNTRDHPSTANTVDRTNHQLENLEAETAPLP

| Structure (SMILES) | AUC | EC50 (EC50, CHO-K1/MOR/Gα15 cells) | FLIPR Ca^2+ AUC | EC50 (read-out: FLIPR Ca^2+ EC50) |
| --- | --- | --- | --- | --- |
| CCCCS(=O)(=O)NC(=O)c1ccc(N2C(=O)CSC2c2ccc(F)cc2)c(C)c1 (stereo not shown) [Example 163] | more than 5000 | < 10 µM | 11389 | 1.2 µM |
| Cc1cc(C(=O)NS(=O)(=O)C(C)C)ccc1N1C(=O)CSC1c1ccc(F)cc1 (stereo not shown) [Example 165] | more than 5000 |  | 11927 | 22.6 µM |
| Cc1cc(C(=O)NS(=O)(=O)CC(C)C)ccc1N1C(=O)CSC1c1ccc(F)cc1 (stereo not shown) [Example 167] | more than 5000 | < 10 µM | 9905 | 3.4 µM |
| Cc1cc(C(=O)NS(=O)(=O)C2CC2)ccc1N1C(=O)CSC1c1ccc(F)cc1 (stereo not shown) [Example 169] | more than 5000 | < 10 µM | 13189 | 3 µM |
| Cc1cc(C(=O)NS(=O)(=O)C2CCCCC2)ccc1N1C(=O)CSC1c1ccc(F)cc1 (stereo not shown) [Example 171] | more than 5000 | < 10 µM | 10272 | 3.7 µM |
| Cc1cc(C(=O)NS(N)(=O)=O)ccc1N1C(=O)CSC1c1ccc(F)cc1 (stereo not shown) [Example 173] |  |  | 14841 | 5.3 µM |
| Cc1cc(C(=O)NS(=O)(=O)N(C)C)ccc1N1C(=O)CSC1c1ccc(F)cc1 (stereo not shown) [Example 174] |  |  | 12074 | 3.8 µM |
| Cc1cc(C(=O)NS(=O)(=O)C(F)(F)F)ccc1N1C(=O)CSC1c1ccc(F)cc1 (stereo not shown) [Example 175] |  |  | 13866 | 1.6 µM |
| Cc1cc(C(=O)NS(=O)(=O)Cc2ccccc2)ccc1N1C(=O)CSC1c1ccc(F)cc1 (stereo not shown) [Example 176] |  |  | 10601 | 2 µM |
| Cc1cc(C(=O)NS(=O)(=O)Cc2cccc(F)c2)ccc1N1C(=O)CSC1c1ccc(F)cc1 (stereo not shown) [Example 177] |  |  | 16276 | 2.2 µM |
| Cc1cc(C)cc(CS(=O)(=O)NC(=O)c2ccc(N3C(=O)CSC3c3ccc(F)cc3)c(C)c2)c1 (stereo not shown) [Example 179] | more than 5000 | < 10 µM | 14442 | 1.1 µM |
| Cc1cc(C(=O)NS(=O)(=O)c2ccccc2)ccc1N1C(=O)CSC1c1ccc(F)cc1 (stereo not shown) [Example 183] | more than 5000 | < 10 µM | 12230 | 1.9 µM |
| Cc1ccc(S(=O)(=O)NC(=O)c2ccc(N3C(=O)CSC3c3ccc(F)cc3)c(C)c2)cc1 (stereo not shown) [Example 185] |  |  | 18048 | 0.6 µM |
| CCc1ccc(S(=O)(=O)NC(=O)c2ccc(N3C(=O)CSC3c3ccc(F)cc3)c(C)c2)cc1 (stereo not shown) [Example 186] |  |  | 18048 | 0.6 µM |
| Cc1cc(C(=O)NS(=O)(=O)c2ccc(C#N)cc2)ccc1N1C(=O)CSC1c1ccc(F)cc1 (stereo not shown) [Example 187] |  |  | 12927 | 3.3 µM |
| COc1ccc(S(=O)(=O)NC(=O)c2ccc(N3C(=O)CSC3c3ccc(F)cc3)c(C)c2)cc1 (stereo not shown) [Example 188] |  |  | 21983 | 0.7 µM |
| Cc1cc(C(=O)NS(=O)(=O)c2ccc(OC(F)(F)F)cc2)ccc1N1C(=O)CSC1c1ccc(F)cc1 (stereo not shown) [Example 189] |  |  | 9544 | 1.1 µM |
| CCOC(=O)c1ccc(S(=O)(=O)NC(=O)c2ccc(N3C(=O)CSC3c3ccc(F)cc3)c(C)c2)cc1 (stereo not shown) [Example 190] |  |  | 16512 | 2.4 µM |
| Cc1cc(C)c(S(=O)(=O)NC(=O)c2ccc(N3C(=O)CSC3c3ccc(F)cc3)c(C)c2)c(C)c1 (stereo not shown) [Example 192] | more than 5000 | < 10 µM | 11866 | 1.4 µM |
| Cc1cc(C(=O)NS(=O)(=O)c2cccc(F)c2)ccc1N1C(=O)CSC1c1ccc(F)cc1 (stereo not shown) [Example 194] | more than 5000 | < 10 µM | 19019 | 0.2 µM |

| Structure (SMILES) | AUC | EC50 (EC50, CHO-K1/MOR/Gα15 cells) | FLIPR Ca^2+ AUC | EC50 (read-out: FLIPR Ca^2+ EC50) |
| --- | --- | --- | --- | --- |
| Cc1cc(C(=O)NS(=O)(=O)c2ccc(F)cc2)ccc1N1C(=O)CSC1c1ccc(F)cc1 (stereo not shown) [Example 196] | more than 5000 | < 10 µM | 15620 | 1.1 µM |
| Cc1cc(C(=O)NS(=O)(=O)c2ccc(Cl)cc2)ccc1N1C(=O)CSC1c1ccc(F)cc1 (stereo not shown) [Example 198] | more than 5000 | < 10 µM | 13313 | 0.5 µM |
| Cc1cc(C(=O)NS(=O)(=O)c2ccc(Br)cc2)ccc1N1C(=O)CSC1c1ccc(F)cc1 (stereo not shown) [Example 200] | more than 5000 | < 10 µM | 12340 | 0.2 µM |
| CC(=O)Nc1ccc(S(=O)(=O)NC(=O)c2ccc(N3C(=O)CSC3c3ccc(F)cc3)c(C)c2)cc1 (stereo not shown) [Example 202] | more than 5000 | < 10 µM | 17087 | 0.6 µM |
| Cc1cc(C(=O)NS(=O)(=O)c2ccc(F)cc2F)ccc1N1C(=O)CSC1c1ccc(F)cc1 (stereo not shown) [Example 206] |  | < 10 µM |  |  |
| Cc1cc(S(=O)(=O)NC(=O)c2ccc(N3C(=O)CSC3c3ccc(F)cc3)c(C)c2)c(C)cc1Cl (stereo not shown) [Example 208] |  | < 10 µM |  |  |
| Cc1cc(C(=O)NS(=O)(=O)c2cccc3c(N(C)C)cccc23)ccc1N1C(=O)CSC1c1ccc(F)cc1 (stereo not shown) [Example 210] | more than 5000 | < 10 µM | 9425 | 0.7 µM |
| Cc1cc(C(=O)NS(=O)(=O)c2cccnc2)ccc1N1C(=O)CSC1c1ccc(F)cc1 (stereo not shown) [Example 211] | more than 5000 | < 10 µM | 8779 | 0.3 µM |
| Cc1cc(C(=O)NS(=O)(=O)c2c(C)noc2C)ccc1N1C(=O)CSC1c1ccc(F)cc1 (stereo not shown) [Example 213] | more than 5000 | < 10 µM | 9005 | 0.9 µM |
| CCONC(=O)c1ccc(N2C(=O)CSC2c2ccc(F)cc2)c(C)c1 (stereo not shown) [Example 215] |  |  | 10945 | 4.1 µM |
| Cc1cc(C(=O)NOCc2ccccc2)ccc1N1C(=O)CSC1c1ccc(F)cc1 (stereo not shown) [Example 217] |  |  | 9543 | 4.1 µM |
| Cc1cc(C(=O)NO)ccc1N1C(=O)CSC1c1ccc(F)cc1 (stereo not shown) [Example 219] |  |  | 14222 | 6.4 µM |
| Cc1cc(C(=O)NN)ccc1N1C(=O)CSC1c1ccc(F)cc1 (stereo not shown) [Example 220] |  |  | 13871 | 4.9 µM |
| Cc1cc(-c2nnn[nH]2)ccc1N1C(=O)CSC1c1ccc(F)cc1 (stereo not shown) [Example 221] |  |  | 8284 | 0.2 µM |
| Cc1cc(-c2ccco2)ccc1N1C(=O)CSC1c1ccc(F)cc1 (stereo not shown) [Example 224] | more than 5000 |  | 7384 | 11.7 µM |
| Cc1nnc(-c2ccc(N3C(=O)CSC3c3ccc(F)cc3)c(C)c2)o1 (stereo not shown) [Example 227] |  |  | 15410 | 5.5 µM |
| Cc1cc(-c2nnc(C(F)(F)F)o2)ccc1N1C(=O)CSC1c1ccc(F)cc1 (stereo not shown) [Example 228] |  |  | 7035 | 8.6 µM |
| CCCOC(=O)c1ccc(N2C(=O)CSC2c2ccc(F)cc2)c(C)c1 (stereo not shown) [Example 229] |  |  | 13237 | 9.7 µM |
| Cc1cc(C(=O)OC(C)C)ccc1N1C(=O)CSC1c1ccc(F)cc1 (stereo not shown) [Example 231] |  | < 10 µM |  |  |
| CCCCOC(=O)c1ccc(N2C(=O)CSC2c2ccc(F)cc2)c(C)c1 (stereo not shown) [Example 234] |  |  | 10062 | 9 µM |
